Earlier results as cited in patent US20210030671A1, “LIQUID DOSAGE FORMS OF CINACALCET OR SALT THEREOF” (FTF PHARMA PRIVATE LIMITED, priority 2018, published 2021).
Counter-ions that a name gives are not always drawn. Like-named read-outs stand apart in the source and are kept apart here.

SMILES | solubility (in methanol or 95% ethanol) | solubility (in water)
C[C@@H](NCCCc1cccc(C(F)(F)F)c1)c1cccc2ccccc12 [Cinacalcet hydrochloride] | soluble | slightly soluble
C[C@@H](NCCCc1cccc(C(F)(F)F)c1)c1cccc2ccccc12 [Cinacalcet, N-[1-(R)-(−)-(1-naphthyl)ethyl]-3-[3-(trifluoromethyl)phenyl]-1-aminopropane] | – | < 1 µg/mL
